Source: ChEMBL document CHEMBL3813616, “Discovery of novel 7-azaindoles as PDK1 inhibitors” (Bioorg Med Chem Lett, 2016)
Values after ≈ are worked out from the molar mass of the structure shown.

Key:
[1] = biological target: T1, 3-phosphoinositide-dependent protein kinase 1 (Homo sapiens, UniProt O15530); assay: Inhibition of human His6-tagged PDK1 using biotinylated PDKtide as substrate after 60 mins by topcount method
T1 sequence (O15530 whole entry): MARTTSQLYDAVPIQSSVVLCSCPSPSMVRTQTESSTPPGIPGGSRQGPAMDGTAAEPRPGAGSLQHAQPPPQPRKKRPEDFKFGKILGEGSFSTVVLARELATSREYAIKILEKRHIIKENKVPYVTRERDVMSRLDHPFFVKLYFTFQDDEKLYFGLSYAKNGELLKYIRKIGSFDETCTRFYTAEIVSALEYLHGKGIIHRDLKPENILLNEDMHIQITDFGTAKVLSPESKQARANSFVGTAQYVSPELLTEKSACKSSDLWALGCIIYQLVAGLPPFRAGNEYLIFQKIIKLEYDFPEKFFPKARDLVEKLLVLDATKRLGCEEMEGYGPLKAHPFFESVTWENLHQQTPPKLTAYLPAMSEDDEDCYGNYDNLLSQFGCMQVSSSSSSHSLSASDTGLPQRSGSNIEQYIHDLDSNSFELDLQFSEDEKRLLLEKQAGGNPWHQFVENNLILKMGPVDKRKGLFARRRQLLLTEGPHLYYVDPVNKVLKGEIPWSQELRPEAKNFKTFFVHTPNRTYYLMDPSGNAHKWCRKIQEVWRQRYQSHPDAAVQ

[2] = biological target: T1, 3-phosphoinositide-dependent protein kinase 1; assay: Inhibition of PDK1 in human PC3 cells assessed as reduction in AKT Thr308 phosphorylation after 45 mins; format: cell-based, PC-3
[3] = Intrinsic clearance in human liver microsomes; format: ADME; details: read-out: CLH
[4] = Intrinsic clearance in mouse liver microsomes; format: ADME; details: read-out: CLH
[5] = Permeability across apical to basolateral side in human Caco2 cells; format: ADME, cell-based; details: Caco-2
[6] = Efflux ratio of permeability from basolateral to apical over apical to basolateral side in human Caco2 cells; format: ADME, cell-based; details: Caco-2
[7] = biological target: T2, Phosphatidylinositol 4,5-bisphosphate 3-kinase catalytic subunit alpha isoform (Homo sapiens, UniProt P42336); assay: Inhibition of PI3K alpha (unknown origin)
T2 sequence (P42336 whole entry, canonical isoform): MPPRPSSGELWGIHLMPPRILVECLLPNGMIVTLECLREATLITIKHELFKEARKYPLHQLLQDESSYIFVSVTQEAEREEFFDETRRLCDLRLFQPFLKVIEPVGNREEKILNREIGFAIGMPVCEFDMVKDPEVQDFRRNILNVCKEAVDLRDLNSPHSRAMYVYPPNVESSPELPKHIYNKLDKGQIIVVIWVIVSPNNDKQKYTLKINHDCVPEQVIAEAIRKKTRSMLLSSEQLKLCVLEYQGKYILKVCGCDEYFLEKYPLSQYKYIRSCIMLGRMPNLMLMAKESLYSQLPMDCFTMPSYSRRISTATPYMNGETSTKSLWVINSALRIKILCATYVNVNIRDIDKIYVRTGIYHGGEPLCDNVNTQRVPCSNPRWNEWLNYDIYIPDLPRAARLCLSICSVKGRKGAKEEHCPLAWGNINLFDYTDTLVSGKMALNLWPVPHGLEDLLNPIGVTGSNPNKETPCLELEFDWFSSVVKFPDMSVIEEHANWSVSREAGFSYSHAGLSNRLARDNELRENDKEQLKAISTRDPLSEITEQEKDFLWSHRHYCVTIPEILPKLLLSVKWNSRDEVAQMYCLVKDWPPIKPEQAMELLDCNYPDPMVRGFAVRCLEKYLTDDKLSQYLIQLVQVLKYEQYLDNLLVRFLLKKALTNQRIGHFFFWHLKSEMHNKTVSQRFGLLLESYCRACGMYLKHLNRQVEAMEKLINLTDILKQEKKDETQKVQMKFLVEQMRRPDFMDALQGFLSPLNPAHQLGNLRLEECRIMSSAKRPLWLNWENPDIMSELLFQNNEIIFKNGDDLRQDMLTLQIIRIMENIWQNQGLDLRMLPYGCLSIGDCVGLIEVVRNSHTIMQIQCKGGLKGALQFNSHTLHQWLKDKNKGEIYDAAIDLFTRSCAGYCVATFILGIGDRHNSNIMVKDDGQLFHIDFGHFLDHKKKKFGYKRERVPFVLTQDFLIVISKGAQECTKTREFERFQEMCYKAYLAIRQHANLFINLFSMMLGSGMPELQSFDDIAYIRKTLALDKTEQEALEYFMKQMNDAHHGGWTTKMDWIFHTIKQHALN

[8] = biological target: Phosphatidylinositol 4,5-bisphosphate 3-kinase catalytic subunit beta isoform (Homo sapiens, UniProt P42338); assay: Inhibition of PI3K beta (unknown origin)
Chain of Phosphatidylinositol 4,5-bisphosphate 3-kinase catalytic subunit beta isoform (P42338 whole entry, canonical isoform): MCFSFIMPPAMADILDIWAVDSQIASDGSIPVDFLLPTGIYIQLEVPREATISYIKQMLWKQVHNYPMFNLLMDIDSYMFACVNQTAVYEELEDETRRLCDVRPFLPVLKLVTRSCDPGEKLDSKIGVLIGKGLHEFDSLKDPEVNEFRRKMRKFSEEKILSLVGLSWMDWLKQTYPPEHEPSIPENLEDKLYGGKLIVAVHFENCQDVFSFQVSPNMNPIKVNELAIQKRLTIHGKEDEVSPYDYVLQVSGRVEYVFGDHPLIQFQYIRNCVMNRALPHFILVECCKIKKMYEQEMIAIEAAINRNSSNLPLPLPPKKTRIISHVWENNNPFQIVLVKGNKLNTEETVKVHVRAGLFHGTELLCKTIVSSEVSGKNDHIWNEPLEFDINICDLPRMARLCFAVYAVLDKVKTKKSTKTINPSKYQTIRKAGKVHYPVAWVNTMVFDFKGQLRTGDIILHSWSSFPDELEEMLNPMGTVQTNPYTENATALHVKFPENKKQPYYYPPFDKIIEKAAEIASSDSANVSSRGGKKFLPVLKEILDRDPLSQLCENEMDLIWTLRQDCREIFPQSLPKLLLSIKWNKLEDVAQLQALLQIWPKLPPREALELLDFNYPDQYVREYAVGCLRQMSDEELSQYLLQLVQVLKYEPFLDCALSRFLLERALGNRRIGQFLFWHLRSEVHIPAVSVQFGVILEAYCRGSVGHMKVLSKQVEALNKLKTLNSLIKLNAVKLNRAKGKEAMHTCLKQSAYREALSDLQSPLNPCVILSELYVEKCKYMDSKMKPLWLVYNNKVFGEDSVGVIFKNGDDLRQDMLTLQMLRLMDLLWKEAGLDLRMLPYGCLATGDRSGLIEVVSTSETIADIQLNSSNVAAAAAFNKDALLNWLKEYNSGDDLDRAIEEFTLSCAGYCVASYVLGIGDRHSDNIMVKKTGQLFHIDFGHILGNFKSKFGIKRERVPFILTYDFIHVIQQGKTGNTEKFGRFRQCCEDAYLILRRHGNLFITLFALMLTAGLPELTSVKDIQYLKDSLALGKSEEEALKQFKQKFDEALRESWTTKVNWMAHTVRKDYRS

[9] = biological target: Phosphatidylinositol 4,5-bisphosphate 3-kinase catalytic subunit gamma isoform (Homo sapiens, UniProt P48736); assay: Inhibition of PI3K gamma (unknown origin)
Chain of Phosphatidylinositol 4,5-bisphosphate 3-kinase catalytic subunit gamma isoform (P48736 whole entry, canonical isoform): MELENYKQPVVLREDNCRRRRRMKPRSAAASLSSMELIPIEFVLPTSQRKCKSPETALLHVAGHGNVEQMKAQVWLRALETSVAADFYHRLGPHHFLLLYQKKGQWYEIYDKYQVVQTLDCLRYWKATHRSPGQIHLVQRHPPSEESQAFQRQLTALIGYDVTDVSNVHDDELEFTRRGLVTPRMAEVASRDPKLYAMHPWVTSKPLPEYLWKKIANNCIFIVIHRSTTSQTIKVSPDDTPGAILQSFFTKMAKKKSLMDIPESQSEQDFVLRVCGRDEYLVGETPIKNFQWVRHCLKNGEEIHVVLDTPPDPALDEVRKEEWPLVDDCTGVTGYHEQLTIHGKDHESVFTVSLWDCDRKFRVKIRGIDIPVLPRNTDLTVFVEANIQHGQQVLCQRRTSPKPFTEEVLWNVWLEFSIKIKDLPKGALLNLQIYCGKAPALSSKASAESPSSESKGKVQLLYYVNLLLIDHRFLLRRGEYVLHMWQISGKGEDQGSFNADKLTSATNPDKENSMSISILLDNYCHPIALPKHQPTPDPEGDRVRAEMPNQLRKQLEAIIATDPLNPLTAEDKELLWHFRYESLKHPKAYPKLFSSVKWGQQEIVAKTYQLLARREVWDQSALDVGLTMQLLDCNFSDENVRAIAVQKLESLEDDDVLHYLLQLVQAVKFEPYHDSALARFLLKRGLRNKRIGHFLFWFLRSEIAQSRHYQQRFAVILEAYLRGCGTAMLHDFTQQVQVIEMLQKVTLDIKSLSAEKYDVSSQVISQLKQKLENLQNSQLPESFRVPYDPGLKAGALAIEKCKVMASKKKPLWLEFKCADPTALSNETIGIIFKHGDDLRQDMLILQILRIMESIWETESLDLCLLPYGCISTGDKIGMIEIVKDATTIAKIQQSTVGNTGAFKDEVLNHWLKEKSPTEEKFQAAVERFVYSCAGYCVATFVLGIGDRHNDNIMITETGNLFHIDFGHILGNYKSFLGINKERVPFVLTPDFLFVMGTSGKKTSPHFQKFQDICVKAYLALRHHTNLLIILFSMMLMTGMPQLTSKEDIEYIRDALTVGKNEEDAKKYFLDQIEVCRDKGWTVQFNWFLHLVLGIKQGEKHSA

[10] = biological target: T3, Phosphatidylinositol 4,5-bisphosphate 3-kinase catalytic subunit delta isoform (Homo sapiens, UniProt O00329); assay: Inhibition of PI3K delta (unknown origin)
T3 sequence (O00329 whole entry): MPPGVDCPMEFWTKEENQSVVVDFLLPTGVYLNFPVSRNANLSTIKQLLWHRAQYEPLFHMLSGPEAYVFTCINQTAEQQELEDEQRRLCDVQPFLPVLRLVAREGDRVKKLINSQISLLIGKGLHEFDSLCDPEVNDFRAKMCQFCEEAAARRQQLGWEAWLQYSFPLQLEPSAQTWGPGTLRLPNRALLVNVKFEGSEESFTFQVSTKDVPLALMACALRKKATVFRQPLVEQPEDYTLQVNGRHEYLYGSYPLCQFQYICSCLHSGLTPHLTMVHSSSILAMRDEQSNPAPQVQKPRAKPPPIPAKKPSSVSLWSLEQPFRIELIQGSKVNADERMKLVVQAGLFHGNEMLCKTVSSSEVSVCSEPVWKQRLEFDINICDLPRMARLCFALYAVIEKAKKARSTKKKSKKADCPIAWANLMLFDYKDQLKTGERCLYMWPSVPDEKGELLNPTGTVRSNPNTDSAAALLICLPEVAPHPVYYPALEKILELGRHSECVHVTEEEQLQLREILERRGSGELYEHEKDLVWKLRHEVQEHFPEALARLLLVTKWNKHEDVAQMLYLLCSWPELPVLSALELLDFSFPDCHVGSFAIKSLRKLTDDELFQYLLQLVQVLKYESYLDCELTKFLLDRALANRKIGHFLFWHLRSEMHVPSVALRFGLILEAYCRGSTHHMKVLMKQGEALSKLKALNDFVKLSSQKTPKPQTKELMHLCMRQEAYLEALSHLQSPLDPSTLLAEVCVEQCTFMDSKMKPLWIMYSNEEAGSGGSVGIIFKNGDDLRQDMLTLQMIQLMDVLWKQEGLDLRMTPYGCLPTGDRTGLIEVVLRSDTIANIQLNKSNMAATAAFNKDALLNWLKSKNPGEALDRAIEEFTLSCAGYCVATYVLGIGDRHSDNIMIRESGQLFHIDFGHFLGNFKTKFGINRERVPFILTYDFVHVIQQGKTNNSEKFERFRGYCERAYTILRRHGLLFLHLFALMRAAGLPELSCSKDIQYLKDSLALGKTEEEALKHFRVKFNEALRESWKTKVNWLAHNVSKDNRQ

Homo sapiens = species: Homo sapiens; assay: Selectivity ratio of IC50 for PI3K alpha (unknown origin) to IC50 for human His6-tagged PDK1
[11] = biological target: T2, Phosphatidylinositol 4,5-bisphosphate 3-kinase catalytic subunit alpha isoform; assay: Inhibition of PI3K alpha (unknown origin) at 10 uM
[12] = biological target: T1, 3-phosphoinositide-dependent protein kinase 1; assay: Inhibition of human PDK1
[13] = Solubility of the compound; format: physicochemical

Compound	IC50 [1] [µM]	IC50 [2] [µM]	also measured
Nc1ncc(-c2ccccc2)cc1-c1nc2ccccc2[nH]1	1.1		
CCc1cc(-c2c[nH]c3ncc(-c4cnn(CC(C)C)c4)cc23)nc(N)n1	0.11	9.6	microsomal CLint [3]: > 55 µL/min/mg; microsomal CLint [4]: 67 µL/min/mg; Papp A→B [5]: 27 ×10⁻⁶ cm/s; Ratio [6]: 0.6; IC50 [7]: 4.7 µM; IC50 [8]: > 30 µM; IC50 [9]: > 10 µM; IC50 [10]: > 10 µM; Ratio IC50 (Homo sapiens): 42
Oc1ccc(-c2n[nH]c3cc(O)ccc23)cc1	6.7		
CCc1cc(-c2c(C)[nH]c3ncccc23)nc(N)n1	> 10		
CCc1cc(-c2c[nH]c3ncccc23)nc(N)n1	1.2	> 30	
CCc1cc(-c2c[nH]c3ncc(-c4c(C)nn(C)c4C)cc23)nc(N)n1	2.7	> 30	
CCc1cc(-c2c[nH]c3ncc(-c4ccc(N)nc4)cc23)nc(N)n1	0.17	21	IC50 [7]: > 10 µM; IC50 [8]: > 30 µM; IC50 [9]: > 10 µM; IC50 [10]: > 10 µM
CCc1cc(-c2c[nH]c3ncc(-c4ccn[nH]4)cc23)nc(N)n1	0.26	26	IC50 [7]: > 10 µM; IC50 [8]: > 30 µM; IC50 [9]: > 10 µM; IC50 [10]: > 10 µM
CCc1cc(-c2c[nH]c3ncc(-c4cn[nH]c4)cc23)nc(N)n1	0.013	5.4	microsomal CLint [3]: 52 µL/min/mg; microsomal CLint [4]: > 70 µL/min/mg; Papp A→B [5]: 0.89 ×10⁻⁶ cm/s; Ratio [6]: 54.8; IC50 [7]: 6 µM; IC50 [8]: > 30 µM; IC50 [9]: 7 µM; IC50 [10]: > 30 µM; Ratio IC50 (Homo sapiens): 460
CCc1cc(-c2c[nH]c3ncc(Br)cc23)nc(N)n1	0.48	> 30	
CNc1nccc(-c2cn(CCOC)c3ncccc23)n1	> 10		
CCc1cc(-c2c[nH]c3ncc(-c4cnn(C)c4)cc23)nc(N)n1	0.085	11	microsomal CLint [3]: > 55 µL/min/mg; microsomal CLint [4]: 71 µL/min/mg; Papp A→B [5]: 5.4 ×10⁻⁶ cm/s; Ratio [6]: 7.9; IC50 [9]: > 10 µM; IC50 [10]: > 10 µM; inhibition [11]: 78%
Nc1nccc(-c2c[nH]c3cccc(O)c23)n1 [MERIDIANIN A]			IC50 [12]: 5.4 µM
COc1ccc2[nH]c(-c3cc[nH]n3)nc2c1	93		
Cc1nccc(-c2c[nH]c3ncccc23)n1	> 10		
NCCCc1cc(-c2c[nH]c3ncccc23)nc(N)n1	0.39	> 30	solubility [13]: 12 µg/mL (≈ 44.7 µM)
CCc1cc(-c2c[nH]c3ncc(-c4ccccc4)cc23)nc(N)n1	3.5	> 30	
CCc1cc(-c2c[nH]c3nccc(Cl)c23)nc(N)n1	> 10		
CCc1cc(-c2c[nH]c3ncc(-c4ccncc4)cc23)nc(N)n1	0.45	> 30	
CCc1cc(-c2c[nH]c3ncc(-c4ccco4)cc23)nc(N)n1	0.12	28	IC50 [7]: > 10 µM; IC50 [9]: > 10 µM; IC50 [10]: > 10 µM
Nc1nccc(-c2c[nH]c3ccc(Br)cc23)n1 [MERIDIANIN C]	12		
Nc1ncc(Br)c(-c2c[nH]c3ncccc23)n1	> 10		
CCc1cc(-c2c[nH]c3ncc(-c4ccnn4C)cc23)nc(N)n1	2.4	> 30	
CCc1cc(-c2c[nH]c3ncccc23)ncn1	> 10	> 30	
Nc1nc2c3ccccc3nc(-c3ccccc3)n2n1	60		
CCc1cc(-c2c[nH]c3ncc(-c4cnn(CCN(C)C)c4)cc23)nc(N)n1	0.082	14	microsomal CLint [3]: < 10 µL/min/mg; microsomal CLint [4]: 39 µL/min/mg; Papp A→B [5]: 7.3 ×10⁻⁶ cm/s; Ratio [6]: 2.3; IC50 [7]: 3.9 µM; IC50 [8]: > 30 µM; IC50 [9]: > 10 µM; IC50 [10]: > 10 µM; Ratio IC50 (Homo sapiens): 48
CCc1cc(-c2c[nH]c3ncc(-c4cccnc4)cc23)nc(N)n1	0.5	> 30	
CCCc1cc(-c2c[nH]c3ncccc23)nc(N)n1	1.8	> 30	
NCCCCc1cc(-c2c[nH]c3ncccc23)nc(N)n1	1	> 30	
CCCCCc1cc(-c2c[nH]c3ncccc23)nc(N)n1	2.2	> 30	
